Measured values from US5061714A, “Isoquinoline composition for the treatment of glaucoma or ocular hypertension” (priority 1989, dated 1991).
Structures can show the parent of a compound that is named as a salt.

Assay: Acute toxicity test (LD50) in mice
Details: mouse, in vivo
Protocol: 4-(3-tert.-Butylamino-2-hydroxypropoxy)-2-methyl-1-isoquinolinone hydrochloride and 4-(3-tert.-butylamino-2-hydroxypropoxy)-1-isoquinolinonehydrochloride, respectively were administered to mice to determine the LD50 value.

Structure (SMILES) | LD50 (ip, intraperitoneal, female) | LD50 (ip, intraperitoneal, male) | LD50 (po, female) | LD50 (po, male)
CC(C)(C)NCC(O)COc1c[nH]c(=O)c2ccccc12 (centres unmarked) [4-(3-tert.-butylamino-2-hydroxypropoxy)-1-isoquinolinonehydrochloride] | 367 mg/kg | 382 mg/kg | 2470 mg/kg | 2810 mg/kg
Cl.Cn1cc(OCC(O)CNC(C)(C)C)c2ccccc2c1=O (centres unmarked) [4-(3-tert.-butylamino-2-hydroxypropoxy)-2-methyl-1-isoquinolinone hydrochloride] | 557 mg/kg | 578 mg/kg | 1290 mg/kg | 1390 mg/kg
